We go through 28 molecules from patent US11052092B2, “N-{[2-(piperidin-1-yl)phenyl](phenyl)methyl}-2-(3-oxo-3,4-dihydro-2H-1,4-benzoxazin-7-yl)acetamide derivatives and related compounds as ROR-gamma modulators for treating autoimmune diseases” (Genfit, priority 2017, dated 2021).

Each structure is given as a SMILES string. Counter-ions that a name gives are not always drawn.

As usually defined, the melting point is the temperature, or range, at which the solid turns liquid. Turning to `Cc1ccc(C(NC(=O)Cc2ccc3c(c2)C(C)(O)C(=O)N3C)c2ccc(C)o2)c(N2CCCCC2)c1` (stereo not shown) (as salt: HCl) [Cpd. 39, 2-(3-hydroxy-1,3-dimethyl-2-oxo-2,3-dihydro-1H-indol-5-yl)-N-{[4-methyl-2-(piperidin-1-yl)phenyl](5-methylfuran-2-yl)methyl}acetamide], the melting point was determined as 103 °C. On to `Cc1ccc(C(NC(=O)Cc2ccc3c(c2)C(C)(C)C(=O)N3C)c2ccc(C)o2)c(N2CCCCC2)c1` (stereo not shown) (as salt: HCl) [Cpd. 40, N-{[4-methyl-2-(piperidin-1-yl)phenyl](5-methylfuran-2-yl)methyl}-2-(1,3,3-trimethyl-2-oxo-2,3-dihydro-1H-indol-5-yl)acetamide], for which the melting point is 75 °C.

Take `Cc1ccc(C(NC(=O)Cc2ccc3c(c2)CN(S(C)(=O)=O)C3)c2ccc(C)o2)c(N2CCCCC2)c1` (stereo not shown) (as salt: HCl) [Cpd. 41, 2-(2-methanesulfonyl-2,3-dihydro-1H-isoindol-5-yl)-N-{[4-methyl-2-(piperidin-1-yl)phenyl](5-methylfuran-2-yl)methyl}acetamide]: the melting point came to 83 °C.

`Cc1ccc(C(NC(=O)Cc2cccc3c2CN(S(C)(=O)=O)C3)c2ccc(C)o2)c(N2CCCCC2)c1` (stereo not shown) (as salt: HCl) [Cpd. 50, 2-(2-methanesulfonyl-2,3-dihydro-1H-isoindol-4-yl)-N-{[4-methyl-2-(piperidin-1-yl)phenyl](5-methylfuran-2-yl)methyl}acetamide] came in with a melting point of 155 °C. `Cc1ccc(C(NC(=O)Cc2ccc3c(c2)CCC3=O)c2ccc(C)o2)c(N2CCCCC2)c1` (stereo not shown) (as salt: HCl) [Cpd. 51, N-{[4-methyl-2-(piperidin-1-yl)phenyl](5-methylfuran-2-yl)methyl}-2-(1-oxo-2,3-dihydro-1H-inden-5-yl)acetamide] registered a melting point of 74 °C. Turning to `Cc1ccc(C(NC(=O)Cc2cc(C)c3c(c2)CC(=O)N3)c2ccc(C)o2)c(N2CCCCC2)c1` (stereo not shown) (as salt: HCl) [Cpd. 54, N-{[4-methyl-2-(piperidin-1-yl)phenyl](5-methylfuran-2-yl)methyl}-2-(7-methyl-2-oxo-2,3-dihydro-1H-indol-5-yl)acetamide], the melting point came to 237 °C. As for `CC(C)=C1C(=O)Nc2ccc(CC(=O)NC(c3ccc(C)o3)c3ccc(C)cc3N3CCCCC3)cc21` (stereo not shown) (as salt: HCl) [Cpd. 55, N-{[4-methyl-2-(piperidin-1-yl)phenyl](5-methylfuran-2-yl)methyl}-2-[2-oxo-3-(propan-2-ylidene)-2,3-dihydro-1H-indol-5-yl]acetamide], the melting point stood at 172 °C. As to `Cc1ccc(C(NC(=O)C2(c3ccc4c(c3)CN(S(C)(=O)=O)C4)CC2)c2ccc(Cl)o2)c(C)c1` (stereo not shown) (as salt: HCl) [Cpd. 56, N-[(5-chlorofuran-2-yl)(2,4-dimethylphenyl)methyl]-1-(2-methanesulfonyl-2,3-dihydro-1H-isoindol-5-yl)cyclopropane-1-carboxamide], the melting point was 68 °C. The figure for `Cc1ccc(C(NC(=O)Cc2ccc3[nH]cc(CCO)c3c2)c2ccc(C)o2)c(N2CCCCC2)c1` (stereo not shown) (as salt: HCl) [Cpd. 57, 2-[3-(2-hydroxyethyl)-1H-indol-5-yl]-N-{[4-methyl-2-(piperidin-1-yl)phenyl](5-methylfuran-2-yl)methyl}acetamide] is 80 °C; for `Cc1ccc(C(NC(=O)Cc2ccc3[nH]cc(CO)c3c2)c2ccc(C)o2)c(N2CCCCC2)c1` (stereo not shown) (as salt: HCl) [Cpd. 58, 2-[3-(hydroxymethyl)-1H-indol-5-yl]-N-{[4-methyl-2-(piperidin-1-yl)phenyl](5-methylfuran-2-yl)methyl}acetamide] it is 99 °C; for `Cc1ccc(C(NC(=O)C2(c3ccc4c(c3)OCC(=O)N4)CC2)c2ccc(C)o2)c(C)c1` (stereo not shown) (as salt: HCl) [Cpd. 59, N-[(2,4-dimethylphenyl)(5-methylfuran-2-yl)methyl]-1-(3-oxo-3,4-dihydro-2H-1,4-benzoxazin-7-yl)cyclopropane-1-carboxamide] it is 89 °C. As to `Cc1ccc(C(NC(=O)C2(c3ccc4c(c3)CC(=O)N4)CC2)c2ccc(C)o2)c(C)c1` (stereo not shown) (as salt: HCl) [Cpd. 61, N-[(2,4-dimethylphenyl)(5-methylfuran-2-yl)methyl]-1-(2-oxo-2,3-dihydro-1H-indol-5-yl)cyclopropane-1-carboxamide], the melting point stood at 85 °C. `Cc1ccc(C(NC(=O)C2(c3ccc4[nH]cc(CCO)c4c3)CC2)c2ccc(Cl)o2)c(C)c1` (stereo not shown) (as salt: HCl) [Cpd. 62, N-[(5-chlorofuran-2-yl)(2,4-dimethylphenyl)methyl]-1-[3-(2-hydroxyethyl)-1H-indol-5-yl]cyclopropane-1-carboxamide] gave a melting point of 70 °C.

With `Cc1ccc(C(NC(=O)C2(c3ccc4c(c3)CS(=O)(=O)N4)CC2)c2ccc(C)o2)c(C)c1` (stereo not shown) (as salt: HCl) [Cpd. 63, N-[(2,4-dimethylphenyl)(5-methylfuran-2-yl)methyl]-1-(2,2-dioxo-1,3-dihydro-2,1-benzothiazol-5-yl)cyclopropane-1-carboxamide], the melting point turned out to be 97 °C. Turning to `Cc1ccc(C(NC(=O)Cc2ccc3[nH]cc(C)c3c2)c2ccc(C)o2)c(N2CCCCC2)c1` (stereo not shown) (as salt: HCl) [Cpd. 64, 2-(3-methyl-1H-indol-5-yl)-N-{[4-methyl-2-(piperidin-1-yl)phenyl](5-methylfuran-2-yl)methyl}acetamide], the melting point was 68 °C. The figure for `Cc1ccc(C(NC(=O)C2(c3ccc4c(c3)CN(S(C)(=O)=O)C4)CC2)c2ccc(C)o2)c(C)c1` (stereo not shown) (as salt: HCl) [Cpd. 65, N-[(2,4-dimethylphenyl)(5-methylfuran-2-yl)methyl]-1-(2-methanesulfonyl-2,3-dihydro-1H-isoindol-5-yl)cyclopropane-1-carboxamide] is 67 °C. The result for `Cc1ccc(C(NC(=O)C2(c3ccc4[nH]cc(CCO)c4c3)CC2)c2ccc(C)o2)c(N2CCCCC2)c1` (stereo not shown) (as salt: HCl) [Cpd. 66, 1-[3-(2-hydroxyethyl)-1H-indol-5-yl]-N-{[4-methyl-2-(piperidin-1-yl)phenyl](5-methylfuran-2-yl)methyl}cyclopropane-1-carboxamide] reads 95 °C.

The molecule `Cc1ccc(C(NC(=O)Cc2ccc3c(c2)C(=O)CC3)c2ccc(C)o2)c(N2CCCCC2)c1` (stereo not shown) (as salt: HCl) [Cpd. 67, N-{[4-methyl-2-(piperidin-1-yl)phenyl](5-methylfuran-2-yl)methyl}-2-(3-oxo-2,3-dihydro-1H-inden-5-yl)acetamide] came in with a melting point of 71 °C. The molecule `Cc1ccc(C(NC(=O)Cc2ccc3c(c2)CS(=O)(=O)N3CC2CCOCC2)c2ccc(C)o2)c(Br)c1` (stereo not shown) (as salt: HCl) [Cpd. 68, N-[(2-bromo-4-methylphenyl)(5-methylfuran-2-yl)methyl]-2-[1-(oxan-4-ylmethyl)-2,2-dioxo-1,3-dihydro-2,1-benzothiazol-5-yl]acetamide] displayed a melting point of 92 °C.

Turning to `Cc1ccc(C(NC(=O)C2(c3ccc4c(c3)CS(=O)(=O)N4C)CC2)c2ccc(C)o2)c(C)c1` (stereo not shown) (as salt: HCl) [Cpd. 70, N-[(2,4-dimethylphenyl)(5-methylfuran-2-yl)methyl]-1-(1-methyl-2,2-dioxo-1,3-dihydro-2,1-benzothiazol-5-yl)cyclopropane-1-carboxamide], the melting point came out at 70 °C. For the molecule `Cc1ccc(C(NC(=O)C2(c3ccc4c(c3)CS(=O)(=O)N4)CC2)c2ccc(C)o2)c(N(C)C)c1` (stereo not shown) (as salt: HCl) [Cpd. 71, N-{[2-(dimethylamino)-4-methylphenyl](5-methylfuran-2-yl)methyl}-1-(2,2-dioxo-1,3-dihydro-2,1-benzothiazol-5-yl)cyclopropane-1-carboxamide], the melting point turned out to be 107 °C. The result for `Cc1ccc(C(NC(=O)C2(c3ccc4c(c3)CS(=O)(=O)C4)CC2)c2ccc(Cl)o2)c(C)c1` (stereo not shown) (as salt: HCl) [Cpd. 72, N-[(5-chlorofuran-2-yl)(2,4-dimethylphenyl)methyl]-1-(2,2-dioxo-1,3-dihydro-2-benzothiophen-5-yl)cyclopropane-1-carboxamide] reads 80 °C; that for `Cc1ccc(C(NC(=O)C2(c3ccc4c(c3)CN(S(C)(=O)=O)C4)CC2)c2ccc(C)o2)c(N2CCCC2)c1` (stereo not shown) (as salt: HCl) [Cpd. 73, 1-(2-methanesulfonyl-2,3-dihydro-1H-isoindol-5-yl)-N-{[4-methyl-2-(pyrrolidin-1-yl)phenyl](5-methylfuran-2-yl)methyl}cyclopropane-1-carboxamide], 84 °C; that for `Cc1ccc(C(NC(=O)C2(c3ccc4c(c3)CS(=O)(=O)C4)CC2)c2ccc(C)o2)c(C)c1` (stereo not shown) (as salt: HCl) [Cpd. 74, N-[(2,4-dimethylphenyl)(5-methylfuran-2-yl)methyl]-1-(2,2-dioxo-1,3-dihydro-2-benzothiophen-5-yl)cyclopropane-1-carboxamide], 74 °C. `Cc1ccc(C(NC(=O)C2(c3ccc4c(c3)CN(S(C)(=O)=O)C4)CC2)c2ccc(C)o2)c(N(C)C)c1` (stereo not shown) (as salt: HCl) [Cpd. 76, N-{[2-(dimethylamino)-4-methylphenyl](5-methylfuran-2-yl)methyl}-1-(2-methanesulfonyl-2,3-dihydro-1H-isoindol-5-yl)cyclopropane-1-carboxamide] displayed a melting point of 70 °C. `Cc1ccc(C(NC(=O)Cc2ccc3[nH]c(C)nc3c2)c2ccc(C)o2)c(Br)c1` (stereo not shown) (as salt: HCl) [Cpd. 77, N-[(2-bromo-4-methylphenyl)(5-methylfuran-2-yl)methyl]-2-(2-methyl-1H-1,3-benzodiazol-5-yl)acetamide] showed a melting point of 209 °C. `Cc1ccc(C(NC(=O)Cc2ccc3c(c2)CS(=O)(=O)C3)c2ccc(C)o2)c(N2CCCCC2)c1` (stereo not shown) (as salt: HCl) [Cpd. 78, 2-(2,2-dioxo-1,3-dihydro-2-benzothiophen-5-yl)-N-{[4-methyl-2-(piperidin-1-yl)phenyl](5-methylfuran-2-yl)methyl}acetamide] registered a melting point of 87 °C. As for `Cc1ccc(C(NC(=O)Cc2ccc3c(c2)CN(S(C)(=O)=O)C3)c2ccc(Cl)o2)c(N2CCCCC2)c1` (stereo not shown) (as salt: HCl) [Cpd. 79, N-[(5-chlorofuran-2-yl)[4-methyl-2-(piperidin-1-yl)phenyl]methyl]-2-(2-methanesulfonyl-2,3-dihydro-1H-isoindol-5-yl)acetamide], the melting point was 143 °C.
